Patent US10799456B2, “Multiple drug lipid nanoparticle composition and related methods for extended drug levels in blood and lymph tissue” (priority 2015, dated 2020)

Key:
[1] = Drug incorporation/encapsulation (association) efficiency of multi-drug LNPs by dialysis; assay type: physicochemical; conditions: for Degree of incorporation (% total): anti-HIV LNPs LPV/RTV/PMPA
Method: The anti-HIV LNP formulations contain both unbound drug and drugs bound to lipid nanoparticles. […] Drugs were quantified by LC-MS/MS using acetonitrile precipitation. Encapsulation efficiency (EE) was calculated as follows: […]

[2] = Sucrose gradient test of drug association; assay type: physicochemical; conditions: 5-20% sucrose gradient, 200,000 g, 4 hr; LPV/RTV/TFV LNPs, single miscible solvent method
Method: The sucrose gradient test to determine this characteristic is described in Example 5. Briefly, the sucrose gradient test comprises subjecting the multi-drug lipid nanoparticle to a continuous 5%-20% sucrose gradient and applying a centrifugal force of 200,000 g for 4 hours. The unassociated small molecules separate and float to the less dense fractions, whereas the associated small molecule agents sediment with the stable lipid nanoparticles in the denser gradients. The relative amounts of the unassociated and associated small molecule reagents can be quantified and, thus, compared.
The sucrose gradient test centrifugation test separates any unbound drugs from multi-drug lipid nanoparticles by sedimentation of lipid-drug particles through a sucrose gradient with increasing density to strip off unbound drugs. Under these conditions, all the free drugs in solution remained at (or floated to) the top of gradient where the sucrose density is low. Specifically, using a continuous gradient of 5-20% (with 65% cushion) sucrose, the lipid-drug particle mixture was subjected to centrifugal force at 200,000 g for 4 hr. Through this process, we were able to separate bound and unbound drug fractions. […] It is noted that the observed percentage of multi drug lipid nanoparticle association for the other two drugs (LPV and RTV) are consistent with data in Table 11.

in vivo [3] = conditions: for concentration at 24 h: sc, Mean drug concentration, Plasma
Description: Four young adult male macaques (Macaca nemestrina, 2.9-4.0 kg) were housed and cared for by the Washington National Primate Research Center (WaNPRC) under an approved Institutional Animal Care and Use Committee protocol.
The vehicle for the first suspension was bicarbonate-buffered saline with 3% ethanol and 0.2% bovine serum albumin. The vehicle for the second suspension was bicarbonate-buffered saline with 8% DMSO and 0.1% Tween 20.
(§1) Four macaques were divided into two treatment groups (two animals per group). […] Data were normalized to the anti-HIV LNP dose for comparative analysis.
(§2) Plasma was removed, PBMCs were isolated by the density gradient method, and cells were aliquoted into pellets of approximately 2 million PBMCs each. An inguinal lymph node was surgically excised 24 h after drug administration (n=2 per treatment), LNMCs were isolated by passage through a 100-lm nylon cell strainer (Corning, Tewksbury, Mass.), and cells were aliquoted into pellets of approximately 1-2 million LNMCs each. All samples were stored at −80° C. prior to drug analysis.
(§3) Plasma concentrations of all three drugs were analyzed simultaneously by liquid chromatography-tandem mass spectrometry using a recently published method. […] Antimicrob Agents Chemother 2014; 58(5):2675-2680, incorporated herein by reference in its entirety. PBMC and LNMC pellets were lysed using 200 μl water/methanol (1:1 v/v), sonicated for 10 min, and then extracted and analyzed using the same method as cited above. Intracellular concentrations were converted to ng/ml with the assumption that each cell has a volume of 4×10^−9 ml. Alberts B, Johnson A, Lewis J, et al. Molecular Biology of the Cell, 4 ed. Garland Science, New York, 2002, incorporated herein by reference in its entirety.
Data were analyzed by paired two-tailed Student's t-test with p<0.05 considered statistically significant.

HIV-2(287) replication = assay: Antiviral activity in HIV-infected CEM-174 cells; assay type: cell-based; conditions: Human immunodeficiency virus 2, CEM174, LPV:RTV:PMPA fixed 1:1:0.5 (m/m/m), LNP form; read-out: EC50 (nM), Drug-lipid nanoparticles with 3 drug combination
Method: The antiviral activity of the three-drug combination in soluble or LNP form was evaluated in HIV-infected CEM-174 cells as described previously. […] J Acquir Immune Defic Syndr 2003; 34(4):387-397, incorporated herein by reference in its entirety. […] The dose of drugs added to cells represents the sum of bound and unbound drugs in these anti-HIV LNP formulations.

[4] = pH dependent drug release from LPV/RTV/TFV lipid nanoparticles; assay type: physicochemical; conditions: 2 hrs
Description: As described above, we established the pH-dependent association of various drugs to lipids at neutral pH and the consequent release of the drugs when pH is lowered. Also described above, this stable integration and pH-dependent release of drugs from the multiple drug lipid nanoparticles was consistent for both lipophilic and water soluble compounds. To confirm the pH dependent release of the individual drugs from the multiple drug combination lipid nanoparticles, LPV/RTV/PMPA(TFV) lipid nanoparticles, assembled as described above, were subjected to different pH environments, and the free drug component of the supernatant was assayed to determine the amount of release. […] When a lipid nanoparticle is localized in tissues and taken up by HIV-infected cells, the incorporated antiretroviral drugs are then released inside the cell organelles (such as endosome and lysosomes) when the pH is lowered.

in vivo [5] = conditions: male, Macaca nemestrina, in vivo, sc, Mean drug concentration, Lymph node
Method: as §1, §2, §3

[6] = % Drug association to particles by assembly method; assay type: physicochemical
Description: Select one or two drugs hydrophilic and water soluble (Class 2) drugs listed in Table 19 (for example, tenofovir and/or emtricitabine and/or lamivudine). • 3. Select the excipient combination (for example, 9 parts DSPC and 1 part PEG-DSPE). • 4. Prepare a single-phase miscible solvent that enables full solubilization of the chosen water-insoluble Class 1 drugs and water soluble Class 2 drugs plus the excipients from step 3. Examples include CHCl3:Methanol:Water (65:35:4); CHCl3:Ethanol:Water (65:35:4); CHCl3:Propanol:Water (65:35:4); and CHCl3:Hexanol:Water (65:35:4). • 5. The components in Steps 1, 2 and 3 are solubilized with the miscible solvent in step 4. • 6. The drugs (steps 1 and 2) as well as excipients (step 3) and the miscible solvent (step 4) are dried under reduced pressure with assistance of a combination of heat, reduced pressure and/or aerosolization to provide for uniformity and efficiency of drying. • 7. The dehydrated composition is heated above gel-to-liquid phase transition temperature of the excipient mixture (e.g., 50° C.). • 8. A buffered saline solution is prepared and the temperature is equilibrated to the same temperature as dehydrated composition. • 9. The buffered saline solution and dehydrated composition are gradually combined and maintained at the defined (e.g., 50° C.) for 3 hr. • 10. The resulting hydrated multi-drug lipid nanoparticles are size-reduced by sheering or forcing through small orifice or pressurized filter apparatus while maintaining at the defined temperature (in liquid phase of lipidic excipients).

[7] = cited from earlier work
[8] = Storage stability at 4° C. (fraction of drug bound, dialysis); assay type: physicochemical
Method: To test the long-term stability, the multi-drug nanoparticles were stored under refrigeration at 4° C. and were tested for stability after a prolonged period. The lipid-drug combination particles are stable as determined by both particle size and degree of drug association (Table 12). […] Even the hydrophilic compound, which readily diffuses out of most lipid particles in a number of hours, loses a remarkably low fraction of the associated drug after 8, 12, and 17 months in storage. This exceptional stability provides a substantial advantage for translation to clinical application.

HIV-1 = assay: microbe, parasite or virus in culture; conditions: Human immunodeficiency virus 1, read-out: EC50 in LNP form
[9] = male, Macaca nemestrina, in vivo

In the case of `Cc1cccc(C)c1OCC(=O)N[C@@H](Cc1ccccc1)[C@@H](O)C[C@H](Cc1ccccc1)NC(=O)[C@H](C(C)C)N1CCCNC1=O` [Lopinavir (LPV), Lopinavir], the “% particle-bound” value ([1]; Combination 1, lipid:LPV:RTV:TFV 115:10:5:15, large scale) is reported as “(86.4 ± 0.9) %”, the “% particle-bound” value ([1]; Combination 3, lipid:LPV:EFV:TFV 200:26.6:20:40, large scale) is reported as “(76.6) %” and the “Degree of incorporation (% total)” value ([1]; clinical scale (15-40 ml)) is reported as 93.6 ± 5.5%. For the same compound, the “Degree of incorporation (% total)” value ([1]; laboratory scale (0.1-0.4 ml)) was 74.2 ± 7.3%, the “% association to lipid-drug particles (bound fraction)” value [2] was 81.8% and the “AUC 0-8 (%) of total, LNP” value (in vivo [3]; [9]) was 9.9%. The “AUC 8-168 (%) of total, LNP” value (in vivo [3]; [9]) was 90.1%, the “AUC fraction (% of total) Anti-HIV LNP 24-168 h” value (in vivo [3]; [9]) was 62.8 ± 9.9% and the concentration at 24 h (in vivo [3]; male, Macaca nemestrina, in vivo, Anti-HIV LNP treatment) was 596 ± 123 ng/mL. For the same compound, the concentration at 24 h (in vivo [3]; male, Macaca nemestrina, in vivo, Free drug treatment) was 24.5 ± 26.3 ng/mL, the “AUC Free drug 0-168 h” value (in vivo [3]; plasma, sc 25/14.3/17.1 mg/kg LPV/RTV/PMPA, four animals) was 3830 ± 4040 ng·h/mL and the EC50 (HIV-2(287) replication) was 3 ± 0.8 nM. The “% Drug released from anti-HIV nanoparticles” value (“% Drug released” for short) ([4]; pH 4.0, 37° C.) was 93.7 ± 1.2%, the “% Drug released” value ([4]; pH 5.5, 37° C.) was 28.9 ± 1.4% and the “% Drug released” value ([4]; pH 6.5, 37° C.) was 3.9 ± 2.7%. The “% Drug released” value ([4]; pH 7.4, 37° C.) was 1 ± 0.6%, the concentration at 24 h (in vivo [5]; Anti-HIV LNP treatment) was 1212 ± 9.8 ng/mL and the concentration at 24 h (in vivo [5]; Free drug treatment) was 0 ng/mL. The “% Drug Association to Particles, LNPs from mixture of dual solvent method” value [6] was 80-100%, the “% Drug Association to Particles, LNPs from single, miscible solvent method” value [6] was 90-100% and the “Water solubility @ 25° C.” value [7] was 7.7 ng/mL. For the same compound, the “Fraction of drug bound in multi-drug nanoparticles (% total)” value (shortened to “Fraction of drug bound … (% total)”) ([8]; 0 months) was 82.70 ± 7.00%, the “Fraction of drug bound … (% total)” value ([8]; 8 months) was 95.33 ± 7.53% and the “Fraction of drug bound … (% total)” value ([8]; 12 months) was 94.62 ± 11.86%. For the same compound, the “Fraction of drug bound … (% total)” value ([8]; 17 months, one batch) was 92.89% and the EC50 (HIV-1) was 30 ± 0.8 nM.
